Where two headings read alike, the source gives them in different places.
Columns and labels:
[1] = tested on: normal nude mice; experiment: Comparison of MSC and SLM as modulators of irinotecan toxicity in normal nude mice (Example 5, FIG. 4); type: in vivo
Text: Each experimental group had 10 mice each from two (2) independent experiments.

[2] = tested on: normal nude mice; experiment: Effect of MSC on in vivo toxicity of irinotecan in normal nude mice (Example 1, FIG. 1); conditions: for protection provided by MSC: MSC 0.2 mg/mouse/day ×42 p.o.
Description: The data are combined from at least three independent experiments with five (5) animals per experiment.
To illustrate this embodiment, nude mice were administered 42 single, daily oral doses of 0.2 mg/mouse of MSC.

[3] = tested on: normal mice; experiment: Role of MSC dose in modulating irinotecan toxicity in normal mice (Example 6); type: in vivo
Text: In order to identify the minimum dose of MSC in the successful modulation of drug induced toxicities. […] Those skilled in the art will recognize that by conducting experiments as described herein, optimal doses of selenium for reducing toxicity of other chemotherapeutic agents and other anticancer modalities can be easily determined.

[4] = tested on: normal nude mice
[5] = tested on: normal rats; experiment: Effect of MSC on toxicity of irinotecan in normal rats (Example 2, FIG. 2); type: in vivo
Text: The data are combined from 2-5 independent experiments with four (4) animals for each experiment.

[6] = tested on: squamous cell carcinoma of the head and neck (A253); conditions: MSC 0.2 mg/mouse/d × 42 p.o. where combined
[7] = tested on: rats; experiment: Renal function test after CDDP ± MSC treatment in rats (Example 8); type: in vivo
Description: Reversal of renal toxicity induced by Cisplatin (CDDP). The dose limiting toxicity of therapeutic doses of cisplatin is kidney toxicity. Studies were performed to identify blood biological markers modified by CDDP and to evaluate the ability of MSC to reverse the process. Four groups of six animals each were used. The first group was untreated rats (control), the second group was given MSC at 0.75 mg/rat/day for 20 days and samples collected 2 hours after MSC administration on day 20. The third group was administered CDDP alone at 6 mg/kg by a single
i.v. injection and samples were collected on day 6. The fourth group was adminstered MSC (0.75 mg/rat/day for 20 days) with CDDP (6 mg/kg). CDDP was given 14 days after MSC administration and […] was given for 6 more days after CDDP administration. Samples were collected on day 6 after CDDP administration. Blood samples were collected at postmortem by cardiac puncture. Serum was obtained from the blood samples and urea nitrogen and creatinine concentrations were determined by standard methods using commercially kits (Ortho Clinical Diagnostics).

[8] = tested on: normal nude mice; experiment: Effect of MSC on toxicity of irinotecan, taxol, FU and cisplatin in normal nude mice (Example 4, FIG. 3); type: in vivo; conditions: toxic doses above MTD: irinotecan weekly, taxol 75 mg/kg, 5-FU 150 mg/kg, cisplatin 15 mg/kg once i.v.
Text: In all cases drug doses used were toxic and above the maximum tolerated dose.

[9] = irinotecan 200 mg/kg/wk×4 i.v. alone
[10] = irinotecan 100 mg/kg/wk ×4 i.v. alone
[11] = day 22, 24 h after third irinotecan dose, irinotecan 200 mg/kg, MSC 0.2 mg/mouse
[12] = irinotecan 100 mg/kg/wk × 4 i.v.
[13] = serum, Mean ± SD, CDDP 6 mg/kg single i.v., MSC 0.75 mg/rat daily for 20 days

CCc1c2c(nc3ccc(OC(=O)N4CCC(N5CCCCC5)CC4)cc13)-c1cc3c(c(=O)n1C2)COC(=O)[C@]3(O)CC [Irinotecan, irinotecan, reference compound]
lethality [1, 9]: approximately 55% | survivors [1, 9]: 45% | animals survived treatment [2, 10]: 100% | weight loss [2, 10]: less than 20% | animals died by the end of treatment [2, 9]: 55% | maximum tolerated dose (MTD) ([2]; normal nude mice, irinotecan i.v. weekly ×4): 100 mg/kg/wk | lethality ([3]; irinotecan 200 mg/kg/wk×4 alone): 50% | HCT: haematocrit [4, 11]: 40.9 ± 4.2% | MCH: mean corpuscular hemoglobin [4, 11]: 17.5 ± 0.3 PICO Grams | MCHC: mean corpuscular hemoglobin concentration [4, 11]: 32.7 ± 0.6% | PLT: platelets [4, 11]: 836 ± 201 THSN/CU MM | RBC: red blood cell [4, 11]: 7.8 ± 1.0 Mill/CU MM | WBC: white blood cell [4, 11]: 3.5 ± 0.5 THSN/CU MM | WBC: white blood cell ([4]; day 22, 24 h after third irinotecan dose, irinotecan 200 mg/kg, MSC 0.2 mg/mouse, listed as irinotecan): 3.5 THSN/CU MM | reduction in white blood cells ([4]; irinotecan 200 mg/kg/wk, versus control (9.4 to 3.5)): over 60% | animals died ([5]; rats, irinotecan 200 mg/kg/day for 3 days i.v. (twice MTD), MSC 1 mg/kg/rat daily ×18 p.o.): all the animals | Response Rate (%) CR [6, 12]: 20% | Response Rate (%) PR [6, 12]: 20% | Survivors (%) [6, 12]: 100% | Survivors (%) ([6]; irinotecan 200 mg/kg/wk × 4 i.v.): 45% | Survivors (%) ([6]; irinotecan 300 mg/kg/wk × 4 i.v.): 0%

C[Se]C[C@H](N)C(=O)O [MSC, methylselenocysteine]
reduction of irinotecan toxicity by selenium compound ([1]; irinotecan 200 mg/kg/wk×4 i.v., selenium compound p.o. daily for 28 days, first dose 7 days before irinotecan): equally effective in reducing toxicity | reversal of markers associated with kidney toxicity (BUN and creatinine) ([7]; MSC 0.75 mg/rat/day with CDDP 6 mg/kg): highly effective | Blood Urea Nitrogen [7, 13]: 12.7 ± 1.2 mg/dL | Creatinine [7, 13]: 0.30 ± 0.00 mg/dL | effect of adding MSC on overall body weight loss ([2]; irinotecan 100 mg/kg/wk ×4 i.v. + MSC 0.2 mg/mouse/day ×42 p.o.): decrease in overall body weight loss | protection provided by MSC ([2]; irinotecan 200 mg/kg/wk×4 (twice MTD)): 100% | animals survived ([2]; irinotecan 200 mg/kg/wk×4 i.v. with MSC 0.2 mg/mouse/day ×42 p.o.): 100% | protection provided by MSC ([2]; irinotecan 300 mg/kg/wk×4 (three times MTD)): 80% | MSC dose sufficient for complete protection against lethal doses of irinotecan ([3]; MSC 0.01 to 0.2 mg/mouse/day×42 with irinotecan 200 mg/kg/wk×4): ≤ 0.01 mg/mouse | lethality with the combination ([3]; MSC as low as 0.01 mg/mouse with irinotecan 200 mg/kg/wk×4): no lethality | prevention of neutropenia toxicity induced by irinotecan ([4]; MSC 0.2 mg/mouse/day with irinotecan 200 mg/kg/wk): effectively prevent neutropenia toxicity | HCT: haematocrit [4, 11]: 49.4 ± 2.4% | HGB: hemoglobin [4, 11]: 16.8 ± 0.7 Gram/DL | MCH: mean corpuscular hemoglobin [4, 11]: 18.4 ± 0.7 PICO Grams | MCHC: mean corpuscular hemoglobin concentration [4, 11]: 34.0 ± 0.7% | MCV: mean corpuscular volume [4, 11]: 54.0 ± 1.0 CU Microns | PLT: platelets [4, 11]: 756 ± 231 THSN/CU MM | RBC: red blood cell [4, 11]: 9.1 ± 0.5 Mill/CU MM | WBC: white blood cell [4, 11]: 10.3 ± 4.5 THSN/CU MM | protection against hematologic toxicity induced by irinotecan ([4]; irinotecan 200 mg/kg/wk×4): complete protection | effect of MSC on the survival rate of animals [8]: protective effect | animals with severe diarrhea completely protected by MSC ([5]; rats (FIG. 2), irinotecan 200 mg/kg dose): 50%

— patent US6939893B2, “Method of reducing toxicity of anticancer agents” (priority 2002, dated 2005)
